Source: patent publication US8101638B2, “6-substituted nicotinamide derivatives as opioid receptor antagonists” (Eli Lilly and Company, priority 2003, dated 2012)

Assays:
Format in all cases: biochemical
mu opioid receptor (MOR) = mu opioid receptor (MOR) (Homo sapiens, UniProt P35372); assay: SPA-based GTP-γ-S binding assay, antagonist mode, mu opioid receptor; settings: antagonist assay against agonist DAMGO 1 micromolar; membranes; Kb by Cheng-Prusoff equation
Method: (§1) A scintillation proximity assay (SPA) based GTP-γ-S^35 assay format was developed based on previous opioid (Emmerson et al., J. Pharm Exp Ther 278, 1121, 1996; Horng et al., Society for Neuroscience Abstracts, 434.6, 2000) and muscarinic (DeLapp et al., JPET 289, 946, 1999) assay formats. Membranes were resuspended in 20 mM HEPES, 100 mM NaCl, 5 mM MgCl2, 1 mM DTT, and 1 mM EDTA. […] of GTP-γ-[35S], compound, membrane suspension (20 microgram/well), and wheat germ agglutinin coated SPA beads (1 mg/well) were added to clear bottom 96 well assay plates. GDP ([…]) was added to the membrane solution prior to addition to the assay plates. Plates were sealed and incubated for four hours at room temperature then placed in a refrigerator overnight to allow the beads to settle. Signal stability at 4° C. was determined to be >60 hours. Plates were warmed to room temperature and counted in a Wallac Microbeta scintillation counter. For antagonist assays, specific agonists were added at the following concentrations: (MOR) DAMGO 1 micromolar, (DOR) DPDPE 30 nM, (KOR) U69593 300 nM. Kb's were determined by Cheng-Prusoff equation (see Cheng and Prusoff, Biochem. Pharmacol. 22, 3099, 1973).

[1] = molecular target: kappa opioid receptor (KOR) (Homo sapiens, UniProt P41145); assay: SPA-based GTP-γ-S binding assay, antagonist mode, kappa opioid receptor; settings: antagonist assay against agonist U69593 300 nM; membranes; Kb by Cheng-Prusoff equation
Method: as §1

[2] = molecular target: delta opioid receptor (DOR) (Homo sapiens, UniProt P41143); assay: SPA-based GTP-γ-S binding assay, antagonist mode, delta opioid receptor; settings: antagonist assay against agonist DPDPE 30 nM; membranes; Kb by Cheng-Prusoff equation
Method: as §1

kappa opioid receptor (KOR), sequence (P41145 whole entry): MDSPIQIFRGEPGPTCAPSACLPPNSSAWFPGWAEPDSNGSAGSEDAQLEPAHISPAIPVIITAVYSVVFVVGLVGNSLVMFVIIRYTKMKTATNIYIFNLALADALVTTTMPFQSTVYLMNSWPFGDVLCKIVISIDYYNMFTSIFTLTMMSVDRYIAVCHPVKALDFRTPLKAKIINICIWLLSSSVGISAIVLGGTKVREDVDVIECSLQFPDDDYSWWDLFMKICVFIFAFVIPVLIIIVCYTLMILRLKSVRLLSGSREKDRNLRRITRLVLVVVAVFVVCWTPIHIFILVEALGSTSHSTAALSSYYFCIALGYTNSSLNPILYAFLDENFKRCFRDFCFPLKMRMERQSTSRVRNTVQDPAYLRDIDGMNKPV
delta opioid receptor (DOR), sequence (P41143 whole entry): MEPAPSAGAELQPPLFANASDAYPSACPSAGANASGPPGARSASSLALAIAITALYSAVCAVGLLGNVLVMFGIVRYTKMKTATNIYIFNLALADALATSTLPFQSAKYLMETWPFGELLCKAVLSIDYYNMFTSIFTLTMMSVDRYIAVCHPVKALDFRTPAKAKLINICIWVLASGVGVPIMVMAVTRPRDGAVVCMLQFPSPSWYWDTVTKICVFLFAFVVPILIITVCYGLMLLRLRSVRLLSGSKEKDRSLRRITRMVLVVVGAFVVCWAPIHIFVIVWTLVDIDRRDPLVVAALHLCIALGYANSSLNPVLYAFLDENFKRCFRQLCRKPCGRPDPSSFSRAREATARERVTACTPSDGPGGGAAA
mu opioid receptor (MOR), sequence (P35372 whole entry): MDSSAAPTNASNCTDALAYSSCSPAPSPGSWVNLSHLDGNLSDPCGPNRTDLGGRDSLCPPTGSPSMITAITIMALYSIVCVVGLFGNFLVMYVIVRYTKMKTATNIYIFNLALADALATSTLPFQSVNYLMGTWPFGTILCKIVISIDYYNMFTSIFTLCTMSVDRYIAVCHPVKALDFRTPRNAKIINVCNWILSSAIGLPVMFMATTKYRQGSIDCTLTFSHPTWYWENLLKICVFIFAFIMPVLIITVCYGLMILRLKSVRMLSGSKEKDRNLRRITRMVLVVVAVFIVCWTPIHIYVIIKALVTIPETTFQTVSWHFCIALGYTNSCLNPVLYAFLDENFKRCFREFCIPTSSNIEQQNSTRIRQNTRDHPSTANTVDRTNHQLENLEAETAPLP

Kb (mu opioid receptor (MOR)) [nM]	Kb [1] [nM]	Kb [2] [nM]	SMILES
0.4	9.2	14.6	NC(=O)c1ccc(Oc2ccc3c(c2)CCC3NCCc2ccc(F)cc2)nc1 (stereo not drawn) [Example 90, 6-{1-[2-(4-Fluoro-phenyl)-ethylamino]-indan-5-yloxy}-nicotinamide]
1.1	11.8	9.4	CC(C)CCNCC1CCCc2c(Oc3ccc(C(N)=O)cn3)cccc21 (stereo not drawn) [Example 192, 6-{5-[(3-Methyl-butylamino)-methyl]-5,6,7,8-tetrahydro-naphthalen-1-yloxy}-nicotinamide]
0.5	76	7.9	NC(=O)c1ccc(Oc2cccc3c2CCCC3CNCCC2CCCCC2)nc1 (stereo not drawn) [Example 195, 6-{5-[(2-Cyclohexyl-ethylamino)-methyl]-5,6,7,8-tetrahydro-naphthalen-1-yloxy}-nicotinamide]
0.73	2.5	13.5	CC(C)CCN(C)C1CCc2cc(Oc3ccc(C(N)=O)cn3)ccc21 (stereo not drawn) [Example 20]
0.65	5.79	4.09	CC(C)(C)CCNCC1CCCc2c(Oc3ccc(C(N)=O)cn3)cccc21 (stereo not drawn) [Example 202, 6-{5-[(3,3-Dimethyl-butylamino)-methyl]-5,6,7,8-tetrahydro-naphthalen-1-yloxy}-nicotinamide]
